Some results are limits rather than exact numbers.

Broadly, the IC50 is the concentration that gives 50% inhibition.

Alpha-2A adrenergic receptor, sequence (P08913 whole entry, looked up): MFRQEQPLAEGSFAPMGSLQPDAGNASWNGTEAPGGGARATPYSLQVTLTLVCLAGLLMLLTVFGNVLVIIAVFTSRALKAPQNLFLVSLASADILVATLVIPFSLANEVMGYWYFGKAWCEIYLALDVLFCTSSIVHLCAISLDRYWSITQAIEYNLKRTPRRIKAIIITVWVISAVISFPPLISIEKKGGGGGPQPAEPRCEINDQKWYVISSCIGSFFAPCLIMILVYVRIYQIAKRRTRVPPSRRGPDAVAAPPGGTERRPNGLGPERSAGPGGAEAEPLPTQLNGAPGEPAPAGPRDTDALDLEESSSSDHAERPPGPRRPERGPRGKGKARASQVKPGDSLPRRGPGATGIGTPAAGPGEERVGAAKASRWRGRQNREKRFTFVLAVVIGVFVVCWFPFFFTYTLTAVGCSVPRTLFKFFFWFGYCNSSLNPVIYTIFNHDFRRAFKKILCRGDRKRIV

One test addresses T1, Melanin-concentrating hormone receptor 1 (Homo sapiens, UniProt Q99705). Briefly: Inhibitory activity against human constitutively activated Melanin concentrating hormone receptor 1 induced calcium flux stably expressed in HEK293 cells (n=6). On the technique in general: A change in cytosolic calcium serves as a functional read-out for many receptors and channels.
Target sequence in this assay (Q99705 whole entry): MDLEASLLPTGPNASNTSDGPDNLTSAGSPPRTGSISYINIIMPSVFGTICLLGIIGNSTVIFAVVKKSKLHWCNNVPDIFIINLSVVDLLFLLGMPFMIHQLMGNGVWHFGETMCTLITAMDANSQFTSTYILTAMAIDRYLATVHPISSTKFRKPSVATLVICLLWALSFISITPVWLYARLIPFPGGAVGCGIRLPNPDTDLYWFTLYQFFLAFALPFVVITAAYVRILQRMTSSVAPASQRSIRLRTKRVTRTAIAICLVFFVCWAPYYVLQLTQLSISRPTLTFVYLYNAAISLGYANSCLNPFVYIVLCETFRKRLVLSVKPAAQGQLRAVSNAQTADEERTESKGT
Consider `CN(C)c1nc(NCC2CCC(CNS(=O)(=O)c3ccc(Br)cc3OC(F)(F)F)CC2)nc2ccccc12` (trans isomer), for which the IC50 was 140 nM.

The target in another test is T2, Neuropeptide Y receptor type 5 (Homo sapiens, UniProt Q15761).
T2 sequence (Q15761 whole entry): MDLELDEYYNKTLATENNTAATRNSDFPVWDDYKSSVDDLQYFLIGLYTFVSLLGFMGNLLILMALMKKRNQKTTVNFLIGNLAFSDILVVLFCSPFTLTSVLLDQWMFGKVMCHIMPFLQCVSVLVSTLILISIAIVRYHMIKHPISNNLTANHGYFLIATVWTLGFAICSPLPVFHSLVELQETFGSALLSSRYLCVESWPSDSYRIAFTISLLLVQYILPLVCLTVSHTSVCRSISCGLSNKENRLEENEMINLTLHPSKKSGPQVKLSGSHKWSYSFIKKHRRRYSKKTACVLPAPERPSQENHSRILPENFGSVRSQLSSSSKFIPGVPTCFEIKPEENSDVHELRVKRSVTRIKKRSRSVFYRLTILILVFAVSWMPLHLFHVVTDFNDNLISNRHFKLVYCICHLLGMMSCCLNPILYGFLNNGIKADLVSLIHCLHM
In words: Inhibitory activity against constitutively activated human Neuropeptide Y receptor Y5 transiently expressed in COS-1 cells using [125I]PYY. In kind it is cell-based.
As to `CN(C)c1nc(NC2CCN(S(=O)(=O)c3ccc(Br)cc3OC(F)(F)F)CC2)nc2ccccc12`, half-maximal inhibition (IC50) was put at 8900 nM.
Molecule `O=S(=O)(NCC1CCC(CNc2ncc3ccccc3n2)CC1)c1ccc(Br)cc1OC(F)(F)F` (trans isomer) showed an IC50 of 78 nM.
Regarding `CCCCS(=O)(=O)NCC1CCC(CNc2nc(N(C)C)c3ccccc3n2)CC1` (trans isomer), inhibition was half-maximal at 4.9 nM (IC50).
On the same count and under the same terms, as for `CN(C)c1nc(NC2CCC(CNS(=O)(=O)c3ccc(Br)cc3OC(F)(F)F)CC2)nc2ccccc12` (stereo not given), the figure is 150 nM.
Still for that read-out and setting: the value for `CN(C)c1nc(NC2CCC(NS(=O)(=O)c3ccc(Br)cc3OC(F)(F)F)CC2)nc2ccccc12` (trans isomer) was 31 nM.
As for `CN(C)c1nc(NCC2CCC(CNS(=O)(=O)c3ccc(Br)cc3OC(F)(F)F)CC2)nc2ccccc12` (trans isomer), the IC50 amounted to 2.7 nM.
`CN(C)c1nc(NCC2CCN(S(=O)(=O)c3ccc(Br)cc3OC(F)(F)F)CC2)nc2ccccc12` came in with an IC50 of 3000 nM.
Same read-out and setting: the value for `CN(C)c1nc(NCC2CCC(CNS(C)(=O)=O)CC2)nc2ccccc12` (stereo not given) was 41 nM; that for `Nc1nc(NCC2CCC(CNS(=O)(=O)c3ccc(Br)cc3OC(F)(F)F)CC2)nc2ccccc12` (trans isomer) was 1.6 nM.
Same read-out and setting: the value for `CN(C)c1nc(NCC2CCC(NS(=O)(=O)c3ccc(Br)cc3OC(F)(F)F)CC2)nc2ccccc12` (trans isomer) was 2.5 nM.

The next test addresses T1, Melanin-concentrating hormone receptor 1. In words: Inhibitory activity against mutated constitutively activated human Melanin concentrating hormone receptor 1 (CA-MCH-R1) stably expressed in HEK293 cells using [125I](Phe13, Tyr19) MCH. In kind it is cell-based.
Target sequence in this assay (Q99705 whole entry, looked up): as the sequence (Q99705 whole entry) above
Consider `Nc1nc(NC[C@H]2CC[C@H](CNS(=O)(=O)c3cccc4ccccc34)CC2)nc2ccccc12` [CGP-71683A], for which the 50% inhibitory concentration (IC50) worked out at 3500 nM.
As to `CN(C)c1nc(NC2CCN(S(=O)(=O)c3ccc(Br)cc3OC(F)(F)F)CC2)nc2ccccc12`, the midpoint of inhibition, the IC50, lay at 250 nM.
In the case of `O=S(=O)(NCC1CCC(CNc2ncc3ccccc3n2)CC1)c1ccc(Br)cc1OC(F)(F)F` (trans isomer), the IC50 is > 10000 nM.
Same read-out and setting: as for `CCCCS(=O)(=O)NCC1CCC(CNc2nc(N(C)C)c3ccccc3n2)CC1` (trans isomer), the figure is 2900 nM.
Still for that read-out and setting: as for `CN(C)c1nc(NC2CCC(CNS(=O)(=O)c3ccc(Br)cc3OC(F)(F)F)CC2)nc2ccccc12` (stereo not given), the figure is 1500 nM; as for `CN(C)c1nc(NC2CCC(NS(=O)(=O)c3ccc(Br)cc3OC(F)(F)F)CC2)nc2ccccc12` (trans isomer), 2200 nM; as for `CC(C)S(=O)(=O)NCC1CCC(CNc2nc(N(C)C)c3ccccc3n2)CC1` (trans isomer), > 10000 nM.
The same measure, in the same setting: the value for `CN(C)c1nc(NCC2CCN(S(=O)(=O)c3ccc(Br)cc3OC(F)(F)F)CC2)nc2ccccc12` was 6000 nM; that for `CN(C)c1nc(NCC2CCC(CNS(C)(=O)=O)CC2)nc2ccccc12` (stereo not given) was > 10000 nM; that for `Nc1nc(NCC2CCC(CNS(=O)(=O)c3ccc(Br)cc3OC(F)(F)F)CC2)nc2ccccc12` (trans isomer) was 1900 nM.
`CCCCCCCCS(=O)(=O)NCC1CCC(CNc2nc(N(C)C)c3ccccc3n2)CC1` (trans isomer) displayed an IC50 of 6700 nM.
`CN(C)c1nc(NCC2CCC(NS(=O)(=O)c3ccc(Br)cc3OC(F)(F)F)CC2)nc2ccccc12` (trans isomer) had an IC50 of 810 nM.

The next test has as its target Alpha-2A adrenergic receptor (Homo sapiens, UniProt P08913). In words: Inhibitory activity against constitutively activated human Alpha-2A adrenergic receptor transiently expressed in COS-1 cells using [3H]MK-912. In kind it is cell-based.
`CN(C)c1nc(NC2CCN(S(=O)(=O)c3ccc(Br)cc3OC(F)(F)F)CC2)nc2ccccc12` returned an IC50 of 170 nM.
`O=S(=O)(NCC1CCC(CNc2ncc3ccccc3n2)CC1)c1ccc(Br)cc1OC(F)(F)F` (trans isomer): inhibition was half-maximal at 140 nM (IC50).
Same read-out and setting: the value for `CCCCS(=O)(=O)NCC1CCC(CNc2nc(N(C)C)c3ccccc3n2)CC1` (trans isomer) was 58 nM; that for `CN(C)c1nc(NC2CCC(CNS(=O)(=O)c3ccc(Br)cc3OC(F)(F)F)CC2)nc2ccccc12` (stereo not given) was 110 nM; that for `CN(C)c1nc(NC2CCC(NS(=O)(=O)c3ccc(Br)cc3OC(F)(F)F)CC2)nc2ccccc12` (trans isomer) was 47 nM.
The same measure, in the same setting: the value for `CN(C)c1nc(NCC2CCC(CNS(=O)(=O)c3ccc(Br)cc3OC(F)(F)F)CC2)nc2ccccc12` (trans isomer) was 7.7 nM; that for `CN(C)c1nc(NCC2CCN(S(=O)(=O)c3ccc(Br)cc3OC(F)(F)F)CC2)nc2ccccc12` was 5.6 nM.
Still for that read-out and setting: as for `CN(C)c1nc(NCC2CCC(CNS(C)(=O)=O)CC2)nc2ccccc12` (stereo not given), the figure is 86 nM; as for `Nc1nc(NCC2CCC(CNS(=O)(=O)c3ccc(Br)cc3OC(F)(F)F)CC2)nc2ccccc12` (trans isomer), 100 nM; as for `CN(C)c1nc(NCC2CCC(NS(=O)(=O)c3ccc(Br)cc3OC(F)(F)F)CC2)nc2ccccc12` (trans isomer), 21 nM.

For a further test, the target named is T1, Melanin-concentrating hormone receptor 1. In words: Inhibitory activity against mutated constitutively activated human Melanin concentrating hormone receptor 1 (CA-MCH-R1) stably expressed in HEK293 cells using [125I](Phe13, Tyr19) MCH (n=8). The test is classed as cell-based.
Target sequence in this assay (Q99705 whole entry, looked up): as the sequence (Q99705 whole entry) above
Molecule `CN(C)c1nc(NCC2CCC(CNS(=O)(=O)c3ccc(Br)cc3OC(F)(F)F)CC2)nc2ccccc12` (trans isomer) showed an IC50 of 160 nM.

A further test shares this target. In words: Inhibitory activity against human wild type Melanin concentrating hormone receptor 1 (CA-MCH-R1) stably expressed in HEK293 cells using [125I](Phe13, Tyr19) MCH (n=3). In kind it is cell-based.
Target sequence in this assay (Q99705 whole entry): as the sequence (Q99705 whole entry) above
In turn, `CN(C)c1nc(NCC2CCC(CNS(=O)(=O)c3ccc(Br)cc3OC(F)(F)F)CC2)nc2ccccc12` (trans isomer) showed an IC50 of 200 nM.

The record behind these values is ChEMBL document CHEMBL1145250, “Discovery of 4-(dimethylamino)quinazolines as potent and selective antagonists for the melanin-concentrating hormone receptor 1” (Bioorg Med Chem Lett, 2005).
